Columns and labels:
[1] = test system: cytokine and cellular levels in the BALF; conditions: complexes formed between DOTMA and pDNA; Friemark et al. 1998; cited from earlier work
cytokines in BALF = assay: Cytokine levels in mouse BALF after intranasal instillation (ELISA); type: in vivo, BALB/c mice; conditions: component instilled alone; BALF 24 h
Text: Cytokine levels in the mouse BALF were quantitated using enzyme-linked immunosorbent assay (ELISA) kits as specified by the manufacturers. IFN-γ, TNF-α, IL1-α, IL-1β, IL-10 and IL-6 ELISA kits were from Genzyme Corporation, while mKC, MIP-2 and GM-CSF ELISA kits were from R&D Systems, and the Leukotriene B4 ELISA kit was from Perseptive Diagnostics.
The cationic lipid:pDNA complexes were formed by mixing equal volumes of GL67:DOPE (1:2) with pDNA as described previously (Lee et al., Hum. Gene Ther. 7: 1701-1717, (1996)) to a final concentration of 0.6:1.2:3.6 mM (GL-67:DOPE:pDNA) or 0.3:0.6:1.8 mM, as indicated in the figure legends. The DNA concentration is expressed in terms of nucleotides, using an average nucleotide molecular weight of 330 daltons. BALB/c mice were instilled intranasally with 100 μl of complex as described. See Scheule et al., Hum. Gene Ther. 8: 689-707 (1997). The animals were euthanized and their lungs were lavaged 24 h post-instillation using phosphate-buffered saline (PBS). The recovered BALF were centrifuged at 1,500 rpm for 4 min, and the resulting supernatants were removed and frozen at −80° C. for subsequent cytokine analysis. […]
To determine whether methylation of pDNA affected the inflammatory response in the lungs, we measured the levels of several different cytokines in the BALF 24 h after instillation. […]

BALB/c mouse lungs = assay: Histopathological analysis of lung after intranasal instillation; type: in vivo, BALB/c mice; conditions: component alone; scale from 0 to 4; 2 days post-instillation
Text: The histopathological changes within BALB/c mouse lungs following administration of either cationic lipid alone, pDNA alone, or cationic lipid:pDNA complexes were also examined. BALB/c mice were instilled intranasally with GL-67:(m)pCF1-CAT, GL67:pCF1-CAT, GL-67 alone, (m)pCF1-CAT, pCF1-CAT, or water (vehicle control). Mice were sacrificed 2 days post-instillation and the lungs were processed for histological examination in a blinded manner. Histopathology.
Lungs were fixed by inflation at 30 cm of H2O pressure with 2% paraformaldehyde and 0.2% glutaraldehyde. Representative samples were taken from each lung lobe, embedded in glycol methacrylate, sectioned and stained with hematoxylin and eosin. Histopathology on the lung was evaluated in a blinded fashion and graded subjectively using a scale of 0 to 4, where a score of 0 indicates no abnormal findings and a score of 4 reflects severe changes with intense infiltrates. See Scheule et al., Hum. Gene Ther. 8: 689-707 (1997).
The extent of lung inflammation was graded using a scale from 0 to 4, with 0 indicating no abnormalities, 1 indicating a minimal change, 2 a mild change, 3 a moderate change, and 4 representing severe changes from a normal lung (FIG. 4).

M3 melanoma cells = assay: M3 melanoma model; type: in vivo, mice; conditions: lipid alone, equivalent amount; treated days 5, 10, 14, 18
Procedure: On day 0, mice were inoculated intraperitoneally with M3 melanoma cells. Following the inoculation of M3 tumor cells, the mice were treated on days […], 14, and 18 with either the GL67:pNull complex, which is cationic lipid GL67 complexed to a null vector (a vector without an expressible insert), or were left untreated (control). All untreated control animals died by day 40, while greater than 85% of the animals treated with the GL 67:pNull complex were alive on day 68.
On day 68, the surviving animals were rechallenged subcutaneously with M3 tumor cells. A naive group of animals was also challenged with these same cells in parallel. All the animals in the naive group died by day 105, while approximately 40% of the animals that had been originally treated with the GL 67:pNull complex survived not only the initial intraperitoneal tumor cells but also the secondary subcutaneous challenge.
Following the intraperitoneal inoculation on day 0 of M3 tumor cells, groups of mice were treated on days 5, 10, 14, and 18 with either GL 67:pNull complexes (lipid:pNull), an equivalent amount of GL 67 (lipid alone), an equivalent amount of pNull DNA (pNull vector alone), or were untreated.

SMILES | cytokine and cellular levels in the BALF of treated animals [1] | levels of these four cytokine (TNF-α, IFN-γ, IL-6, KC) in BALF (cytokines in BALF) | lung inflammation score (BALB/c mouse lungs) | mice surviving more than 50 days post tumor cell inoculation (M3 melanoma cells)
CCCCCCCC/C=C\CCCCCCCCOCC(C[N+](C)(C)C)OCCCCCCCC/C=C\CCCCCCCC.[Cl-] (stereo not shown) [DOTMA, N-[1-(2-3-dioleyloxy)propyl]-N,N,N-trimethylammonium chloride] | enhanced |  |  | 
CC(C)CCC[C@@H](C)[C@H]1CC[C@H]2[C@@H]3CC=C4C[C@@H](OC(=O)N(CCCN)CCCCNCCCN)CC[C@]4(C)[C@H]3CC[C@]12C [GL-67] |  | low levels | scored slightly lower than lungs that received lipid:pDNA complex | about 35%

Reference: patent publication US20050176672A1, “Use of cationic lipids to generate anti-tumor immunity” (Genzyme Corporation, priority 1999, published 2005)
